In patent publication US20120053115A1, “Lantibiotic Carboxyamide Derivatives With Enhanced Antibacterial Activity” (Sentinella Pharmaceuticals, Inc., priority 2008, published 2012):

What was measured:
[1] = test system: S. haemolyticus Met-R (code 1729); conditions: 0.02% albumine bovine serum, read after 24 h
Description: (§1) MICs were performed using the broth microdilution methodology following the NCCLS procedure (NCCLS Document M7-A4 Vol. 17 No. 2 January 1997) in presence of 0.02% albumine bovine serum with inocula of approximately 5×10^5 cfu/mL. The media employed included cation-adjusted Mueller-Hinton (MH) broth (Difco Laboratories, Detroit, Mich., USA) supplemented or not with 30% (v/v) bovine serum. Tests were read after 24 h incubation at 25-37° C.

S. pyogenes (code 49) = conditions: 0.02% albumine bovine serum, read after 24 h
Description: as §1

[2] = test system: E. faecium VanA (code 569); conditions: 0.02% albumine bovine serum, read after 24 h
Description: as §1

[3] = test system: S. epidermidis ATCC12228 (code 147); conditions: 0.02% albumine bovine serum, read after 24 h
Description: as §1

[4] = test system: C. albicans ATCC 90028 (code 145); conditions: 0.02% albumine bovine serum, read after 24 h
Description: as §1

[5] = test system: E. faecalisVanA (code 560); conditions: E. faecalis VanA code 560; 0.02% albumine bovine serum; read after 24 h
Description: as §1

[6] = test system: Escherichia coli (code 47); conditions: 0.02% albumine bovine serum, read after 24 h
Description: as §1

[7] = test system: Staphylococcus aureus VISA (code 3798); conditions: S. aureus VISA code 3798; 0.02% albumine bovine serum; read after 24 h
Description: as §1

[8] = test system: S. haemolyticus Met-S (code 1730); conditions: 0.02% albumine bovine serum, read after 24 h
Description: as §1

[9] = test system: Enterococcus faecium VanS (code 568); conditions: E. faecium VanS code 568; 0.02% albumine bovine serum; read after 24 h
Description: as §1

[10] = test system: Staphylococcus aureus VISA Met-R (code 3797); conditions: S. aureus VISA Met-R code 3797; 0.02% albumine bovine serum; read after 24 h
Description: as §1

[11] = test system: E. faecalisVanS (code 559); conditions: E. faecalis VanS code 559; 0.02% albumine bovine serum; read after 24 h
Description: as §1

Structure (SMILES)	Minimal Inhibitory Concentrations [1] [µg/mL]	Minimal Inhibitory Concentrations (S. pyogenes (code 49)) [µg/mL]	Minimal Inhibitory Concentrations [2] [µg/mL]	Minimal Inhibitory Concentrations [3] [µg/mL]	Minimal Inhibitory Concentrations [4] [µg/mL]	Minimal Inhibitory Concentrations [5] [µg/mL]	Minimal Inhibitory Concentrations [6] [µg/mL]	Minimal Inhibitory Concentrations [7] [µg/mL]	Minimal Inhibitory Concentrations [8] [µg/mL]	Minimal Inhibitory Concentrations [9] [µg/mL]	Minimal Inhibitory Concentrations [10] [µg/mL]	Minimal Inhibitory Concentrations [11] [µg/mL]
C=C1NC(=O)[C@H](C(C)C)NC(=O)[C@H](NC(=O)/C(=C/C)NC(=O)[C@@H](N)[C@@H](C)CC)CSC[C@@H](C(=O)N[C@H]2C(=O)N3CCC[C@H]3C(=O)NCC(=O)N[C@H](C(=O)N[C@H](C(=O)N[C@@H]3CSC[C@@H]4NC(=O)CNC(=O)[C@@H](CSC[C@@H]5NC(=O)[C@H](Cc6c[nH]cn6)NC(=O)[C@@H](CSC[C@@H](C(=O)NCCCN(C)C)NC5=O)NC4=O)NC(=O)CNC(=O)CNC(=O)CNC(=O)[C@H](CCC(=O)NCCCN(C)C)NC3=O)[C@@H](C)O)CS[C@H]2C)NC(=O)[C@H](Cc2c[nH]c3ccccc23)NC1=O [Compound 3]	1	2	1	2	64	4	>128	0.50	<0.125	2	1	4
C=C1NC(=O)[C@H](C(C)C)NC(=O)[C@H](NC(=O)/C(=C/C)NC(=O)[C@@H](N)[C@@H](C)CC)CSC[C@@H](C(=O)N[C@H]2C(=O)N3CCC[C@H]3C(=O)NCC(=O)N[C@H](C(=O)N[C@H](C(=O)N[C@@H]3CSC[C@@H]4NC(=O)CNC(=O)[C@@H](CSC[C@@H]5NC(=O)[C@H](Cc6c[nH]cn6)NC(=O)[C@@H](CSC[C@@H](C(=O)NCCN(C)C)NC5=O)NC4=O)NC(=O)CNC(=O)CNC(=O)CNC(=O)[C@H](CCC(=O)NCCN(C)C)NC3=O)[C@@H](C)O)CS[C@H]2C)NC(=O)[C@H](Cc2c[nH]c3ccccc23)NC1=O [Compound 4]	0.50	0.50	1	2	64	2	>128	0.50	<0.125	1	0.50	4
C=C1NC(=O)[C@H](C(C)C)NC(=O)[C@H](NC(=O)/C(=C/C)NC(=O)[C@@H](N)[C@@H](C)CC)CSC[C@@H](C(=O)N[C@H]2C(=O)N3CCC[C@H]3C(=O)NCC(=O)N[C@H](C(=O)N[C@H](C(=O)N[C@@H]3CSC[C@@H]4NC(=O)CNC(=O)[C@@H](CSC[C@@H]5NC(=O)[C@H](Cc6c[nH]cn6)NC(=O)[C@@H](CSC[C@@H](C(=O)NCCCCN(C)C)NC5=O)NC4=O)NC(=O)CNC(=O)CNC(=O)CNC(=O)[C@H](CCC(=O)NCCCCN(C)C)NC3=O)[C@@H](C)O)CS[C@H]2C)NC(=O)[C@H](Cc2c[nH]c3ccccc23)NC1=O [Compound 12]	1	0.50	1	1	64	4	>128	1	<0.125	2	2	8
C=C1NC(=O)[C@H](C(C)C)NC(=O)[C@H](NC(=O)/C(=C/C)NC(=O)[C@@H](N)[C@@H](C)CC)CSC[C@@H](C(=O)N[C@H]2C(=O)N3CCC[C@H]3C(=O)NCC(=O)N[C@H](C(=O)N[C@H](C(=O)N[C@@H]3CSC[C@@H]4NC(=O)CNC(=O)[C@@H](CSC[C@@H]5NC(=O)[C@H](Cc6c[nH]cn6)NC(=O)[C@@H](CSC[C@@H](C(=O)O)NC5=O)NC4=O)NC(=O)CNC(=O)CNC(=O)CNC(=O)[C@H](CCC(=O)O)NC3=O)[C@@H](C)O)CS[C@H]2C)NC(=O)[C@H](Cc2c[nH]c3ccccc23)NC1=O [Compound 97518, reference compound]	128	0.25	>128	64	64	128	>128	>128	128	>128	>128	128
